These molecules were tested against CDK2 (UniProt P24941) (assay: Enzyme Assay).

Row | SMILES | IC50 [µM]
1 | CC(C)(C)C(=O)Nc1ccc(Nc2cc(-c3ccccc3F)ncn2)cc1 | 10 to 250
2 | O=C(Nc1ccc(Nc2cc(-c3ccccc3Cl)ncn2)cc1)[C@@H]1CCCCN1 | 10 to 250
3 | COc1ccccc1-c1cc(Nc2ccc(C(=O)NC(C)(C)C)cc2)ncn1 | 1 to 10
4 | CC(C)Oc1ccccc1-c1cc(NCCc2ccncc2)ncn1 | 1 to 10
5 | COc1ccccc1-c1cc(NCCc2ccncc2)ncn1 | 10 to 250
6 | COc1ccccc1-c1cc(Nc2ccc(NS(=O)(=O)C(C)C)cc2)ncn1 | 0.001 to 1
7 | CCCN(c1ccc(Nc2cc(-c3ccccc3OC)ncn2)cc1)S(=O)(=O)c1ccc(C)cc1 | 10 to 250
8 | Nc1ccc(C(=O)Nc2ccc(Nc3cc(NCC4CCCCC4)ncn3)cc2)cc1 | 10 to 250
9 | CCOc1ccccc1-c1cc(Nc2ccc(NC(=O)c3ccc(N)cc3)cc2)ncn1 | 1 to 10
10 | COc1ccccc1-c1cc(Nc2ccc(C(N)=O)cc2)ncn1 | 0.001 to 1
11 | COc1ccccc1-c1cc(Nc2ccc(NC(=O)c3c[nH]c4ccccc34)cc2)ncn1 | 1 to 10
12 | COc1ccc(-c2cc(Nc3ccc(NC(=O)[C@@H]4CCCCN4)cc3)ncn2)c(OC)c1 | 1 to 10
13 | COc1ccccc1-c1cc(Nc2cccc(N)c2)ncn1 | 0.001 to 1
14 | COc1ccc(-c2cc(NCCc3ccncc3)ncn2)cc1 | 10 to 250
15 | CN1CCC(Nc2cc(Nc3ccc(NC(=O)C(C)(C)C)cc3)ncn2)CC1 | 10 to 250
16 | Cc1ccc(Nc2cc(-c3cccc(N)c3)ncn2)cc1NS(=O)(=O)c1cccc2cccnc12 | 10 to 250
17 | COc1ccccc1-c1cc(Nc2ccc(NC(=O)c3ccncc3)cc2)ncn1 | 10 to 250
18 | COc1ccccc1-c1cc(Nc2ccc(C(=O)NC3CCCCC3)cc2)ncn1 | 1 to 10
19 | COc1ccccc1-c1ncnc(Nc2ccc(N)cc2)c1C | 10 to 250
20 | Cc1ccc(Nc2cc(-c3ccccc3O)ncn2)cc1NS(C)(=O)=O | 0.001 to 1
21 | CC(C)(C)C(=O)Nc1ccc(Nc2cc(Cl)ncn2)cc1 | 10 to 250
22 | Cc1ccc(Nc2cc(-c3cccc(C=O)c3)ncn2)cc1NS(C)(=O)=O | 1 to 10
23 | Nc1ccc(C(=O)Nc2ccc(Nc3cc(-c4ccccc4)ncn3)cc2)cc1 | 10 to 250
24 | COc1ccccc1-c1cc(N(C)c2ccc(N)cc2)ncn1 | 1 to 10
25 | COc1ncccc1-c1cc(Nc2ccc(NC(=O)[C@@H]3CCCCN3)cc2)ncn1 | 1 to 10
26 | COc1ccc(-c2cc(Nc3ccc(C(=O)N[C@@H]4CCCC[C@H]4N)cc3)ncn2)cc1.COc1ccc(-c2cc(Nc3ccc(C(=O)N[C@H]4CCCC[C@@H]4N)cc3)ncn2)cc1 | 1 to 10

Row | SMILES | IC50 [µM]
27 | Cc1ccc(S(=O)(=O)Nc2ccc(Nc3cc(-c4cccc(/C=C/C(=O)O)c4)ncn3)cc2)cc1 | 10 to 250
28 | Cc1ccc(S(=O)(=O)Nc2ccc(Nc3cc(Cl)ncn3)cc2)cc1 | 1 to 10
29 | COc1ccccc1-c1cc(Nc2ccc(NC(=O)C(c3ccccc3)N(C)C)cc2)ncn1 (configuration not stated) | 1 to 10
30 | Nc1cccc(-c2cc(Nc3ccc(S(N)(=O)=O)cc3)ncn2)c1 | 0.001 to 1
31 | Cc1ccc(Nc2cc(-c3ccccc3)ncn2)cc1NS(C)(=O)=O | 0.001 to 1
32 | COc1ccccc1-c1cc(Nc2ccc(C(=O)N[C@@H]3CCCC[C@H]3O)cc2)ncn1.COc1ccccc1-c1cc(Nc2ccc(C(=O)N[C@H]3CCCC[C@@H]3O)cc2)ncn1 | 1 to 10
33 | COc1ccccc1-c1cc(Nc2ccc(NS(=O)(=O)c3ccc(C(C)C)cc3)cc2)ncn1 | 1 to 10
34 | Cc1ccc(S(=O)(=O)Nc2ccc(Nc3cc(-c4ccc(CCC(=O)O)cc4)ncn3)cc2)cc1 | 10 to 250
35 | CSc1ccccc1-c1cc(Nc2ccc(NC(=O)[C@@H]3CCCCN3)cc2)ncn1 | 1 to 10
36 | COc1ccc(Cl)cc1-c1cc(Nc2ccc(NC(=O)c3ccc(N)cc3)cc2)ncn1 | 10 to 250
37 | COc1ccc(-c2cc(Nc3ccc(NS(=O)(=O)c4ccc(C)cc4)cc3)ncn2)cc1 | 1 to 10
38 | Cc1ccc(Nc2cc(-c3ccccc3OC(C)C)ncn2)cc1NS(C)(=O)=O | 0.001 to 1
39 | CC(C)Oc1ccccc1-c1cc(Nc2ccc(NC(=O)[C@@H]3CCCCN3)cc2)ncn1 | 1 to 10
40 | COc1ccccc1-c1cc(Nc2ccc(NC(=O)Nc3ccc4c(c3)OCO4)cc2)ncn1 | 10 to 250
41 | O=C(Nc1ccc(Nc2cc(-c3ccccc3OCc3ccccc3)ncn2)cc1)[C@@H]1CCCCN1 | 0.001 to 1
42 | COc1ccccc1-c1cc(Nc2ccc(-c3nc4ccccc4[nH]3)cc2)ncn1 | 0.001 to 1
43 | COc1ccccc1-c1cc(Nc2ccc(NC(=O)NC(C)(C)C)cc2)ncn1 | 1 to 10
44 | CC(=O)Nc1cccc(-c2cc(Nc3ccc(C)c(NS(C)(=O)=O)c3)ncn2)c1 | 1 to 10
45 | c1ccc(COc2ccccc2-c2cc(NCCc3ccncc3)ncn2)cc1 | 1 to 10
46 | COC(=O)CN(c1ccc(Nc2cc(-c3ccccc3OC)ncn2)cc1)S(=O)(=O)c1ccc(C)cc1 | 1 to 10
47 | COc1ccccc1-c1cc(Nc2ccc(NC(=O)C(C)(C)C)cc2)ncn1 | 1 to 10
48 | COc1ccccc1-c1cc(Nc2ccc(NC(=O)CC(C)(C)C)cc2)ncn1 | 1 to 10
49 | Cc1ccc(Nc2cc(-c3cccc(CO)c3)ncn2)cc1NS(C)(=O)=O | 1 to 10
50 | COc1cccc(-c2cc(Nc3ccc(NS(=O)(=O)c4ccc(C)cc4)cc3)ncn2)c1 | 10 to 250
51 | CC(C)(C)C(=O)Nc1ccc(Nc2cc(NCCCO)ncn2)cc1 | 10 to 250
52 | Nc1cccc(-c2cc(Nc3cccc(S(N)(=O)=O)c3)ncn2)c1 | 1 to 10

Row | SMILES | IC50 [µM]
53 | O=C(Nc1ccc(Nc2cc(-c3ccc(Oc4ccccc4)cc3)ncn2)cc1)[C@@H]1CCCCN1 | 1 to 10
54 | Nc1ccc(C(=O)Nc2ccc(Nc3cc(NCCO)ncn3)cc2)cc1 | 10 to 250
55 | COc1ccccc1-c1cc(Nc2ccc(C)c(NS(C)(=O)=O)c2)ncn1 | 0.001 to 1
56 | CC[C@H](C)[C@H](N)C(=O)Nc1ccc(Nc2cc(-c3ccccc3OC)ncn2)cc1 | 1 to 10
57 | COc1ccccc1-c1cc(Nc2ccc(C(=O)Nc3ccc(C(C)C)cc3)cc2)ncn1 | 10 to 250
58 | CCc1ccccc1-c1cc(Nc2ccc(NC(=O)C(C)(C)C)cc2)ncn1 | 1 to 10
59 | COc1ccccc1-c1cc(Nc2ccc(C(=O)Nc3ccc(C(C)(C)C)cc3)cc2)ncn1 | 10 to 250
60 | COc1ccccc1-c1cc(Nc2ccc(C(=O)Nc3ccc(O)cc3)cc2)ncn1 | 1 to 10
61 | CC(C)(C)C(=O)Nc1ccc(Nc2cc(-c3ccccc3C(F)(F)F)ncn2)cc1 | 10 to 250
62 | COc1ccc(-c2cc(Nc3ccc(NC(=O)c4ccc(N)cc4)cc3)ncn2)cc1 | 1 to 10
63 | COc1ccccc1-c1cc(Nc2ccc(NC(=O)[C@@H]3CCCCN3C(=O)OC(C)(C)C)cc2)ncn1 | 1 to 10
64 | COc1cccc(-c2cc(Nc3ccc(NC(=O)[C@@H]4CCCCN4)cc3)ncn2)c1OC | 10 to 250
65 | CN1CCN(c2cc(Nc3ccc(NC(=O)C(C)(C)C)cc3)ncn2)CC1 | 10 to 250
66 | COc1ncccc1-c1cc(Nc2ccc(C)c(NS(C)(=O)=O)c2)ncn1 | 1 to 10
67 | COc1ccccc1-c1cc(Nc2cccc(S(N)(=O)=O)c2)ncn1 | 0.001 to 1
68 | Nc1ccc(C(=O)Nc2ccc(Nc3cc(-c4cccc(N)c4)ncn3)cc2)cc1 | 1 to 10
69 | Cc1ccc(S(=O)(=O)Nc2ccc(Nc3cc(-c4ccc(O)cc4)ncn3)cc2)cc1 | 0.001 to 1
70 | COc1cccc(-c2cc(Nc3ccc(C)c(NS(C)(=O)=O)c3)ncn2)c1 | 1 to 10
71 | CCCS(=O)(=O)Nc1ccc(Nc2cc(-c3ccccc3OC)ncn2)cc1 | 0.001 to 1
72 | COc1ccccc1-c1cc(Nc2ccc(NC(=O)c3ccc4ccccc4n3)cc2)ncn1 | 10 to 250
73 | Cc1ccc(Nc2cc(-c3cccc(NS(C)(=O)=O)c3)ncn2)cc1CS(N)(=O)=O | 0.001 to 1
74 | COc1cccc(OC)c1-c1cc(Nc2ccc(NC(=O)c3ccc(N)cc3)cc2)ncn1 | 10 to 250
75 | Cc1ccc(Nc2cc(-c3cccc(N(C)C)c3)ncn2)cc1NS(C)(=O)=O | 1 to 10
76 | C=Cc1ccccc1-c1cc(Nc2ccc(NC(=O)C(C)(C)C)cc2)ncn1 | 10 to 250
77 | COc1ccc(C(C)C)cc1-c1cc(Nc2ccc(NC(=O)c3ccc(N)cc3)cc2)ncn1 | 10 to 250
78 | COc1ccccc1-c1cc(Nc2ccc(C(=O)N[C@@H]3CCCC[C@@H]3N)cc2)ncn1.COc1ccccc1-c1cc(Nc2ccc(C(=O)N[C@H]3CCCC[C@H]3N)cc2)ncn1 | 1 to 10

Row | SMILES | IC50 [µM]
79 | COc1ccccc1-c1cc(Nc2ccc(NC(=O)c3ccc(N)cc3)cc2)nc(N)n1 | 10 to 250
80 | Nc1cccc(-c2cc(NCCc3ccncc3)ncn2)c1 | 1 to 10
81 | COc1ccccc1-c1cc(Nc2ccc(NC(=O)c3ccc4c(c3)OCO4)cc2)ncn1 | 1 to 10
82 | COC(=O)c1ccc(Nc2cc(-c3ccccc3OC)ncn2)cc1 | 0.001 to 1
83 | Cc1ccc(Nc2cc(-c3cccc(O)c3)ncn2)cc1NS(C)(=O)=O | 0.001 to 1
84 | COc1ccccc1-c1cc(Nc2ccc(NC(=O)NCc3ccc(C)cc3)cc2)ncn1 | 10 to 250
85 | COc1ccccc1-c1cc(Nc2ccc(NC(=O)C3CC4CCC3C4)cc2)ncn1 (configuration not stated) | 10 to 250
86 | COc1ccccc1-c1cc(Nc2ccc(NC(=O)c3ccc(N)cc3)cc2)ncn1 | 1 to 10
87 | COc1ccccc1-c1cc(Nc2ccc(NC(=O)c3nc4ccccc4s3)cc2)ncn1 | 10 to 250
88 | COc1ccccc1-c1cc(Nc2ccc(NS(=O)(=O)c3ccc(-c4ccccc4)cc3)cc2)ncn1 | 1 to 10
89 | COc1ccc(-c2cc(Nc3ccc(NC(=O)c4ccc(N)cc4)cc3)ncn2)c(OC)c1 | 0.001 to 1
90 | Cc1ccc(Nc2cc(-c3cccc(C(F)(F)F)c3)ncn2)cc1NS(C)(=O)=O | 10 to 250
91 | CC(C)(C)C(=O)Nc1ccc(Nc2cc(-c3cccnc3)ncn2)cc1 | 10 to 250
92 | COc1ccc(-c2cc(Nc3ccc(C)c(NS(C)(=O)=O)c3)ncn2)cc1 | 0.001 to 1
93 | Cc1ccc(Nc2cc(-c3cccc(N)c3)ncn2)cc1NS(=O)(=O)c1cn(C)cn1 | 0.001 to 1
94 | COc1ccccc1-c1cc(Nc2ccc(NC(=O)c3ccc4[nH]cnc4c3)cc2)ncn1 | 10 to 250
95 | Cc1ccc(Nc2cc(-c3ccccc3OCc3ccccc3)ncn2)cc1NS(C)(=O)=O | 0.001 to 1
96 | COc1ccccc1-c1cc(Nc2ccc(NC(=O)C34CC5CC(CC(C5)C3)C4)cc2)ncn1 | 10 to 250
97 | Nc1ccc(C(=O)Nc2ccc(Nc3cc(-c4cccs4)ncn3)cc2)cc1 | 10 to 250
98 | COc1ccccc1-c1cc(Nc2ccc(-c3nc4ccccc4o3)cc2)ncn1 | 10 to 250
99 | COc1ccc(-c2cc(Nc3cccc(S(N)(=O)=O)c3)ncn2)cc1 | 0.001 to 1
100 | COc1ccccc1-c1cc(Nc2ccc(NC(=O)C3CCN(C)CC3)cc2)ncn1 | 1 to 10
101 | CS(=O)(=O)Nc1cc(Nc2cc(-c3cccc(N)c3)ncn2)ccc1OCc1ccccc1 | 1 to 10
102 | COc1ccccc1-c1cc(Nc2ccc(NC(=O)c3ccc4ccccc4c3O)cc2)ncn1 | 1 to 10

Source: the Kinase Knowledgebase extract (Sharma et al. 2016)
